In patent publication US9303012B2, “Pyridine-2-amides useful as CB2 agonists” (Hoffmann-La Roche Inc., priority 2012, dated 2016):

How the values were obtained:
[1] = target: human CB2 receptors (Homo sapiens (Human), UniProt P34972); assay: functional cAMP assay, CHO cells expressing human CB2 receptors; assay type: cell-based
Description: (§1) CHO cells expressing human CB1 or CB2 receptors are seeded 17-24 hours prior to the experiment 50.000 cells per well in a black 96 well plate with flat clear bottom (Corning Costar #3904) in DMEM (Invitrogen No. 31331), 1×HT supplement, with 10% fetal calf serum and incubated at 5% CO2 and 37° C. in a humidified incubator. The growth medium was exchanged with Krebs Ringer Bicarbonate buffer with 1 mM IBMX and incubated at 30° C. for 30 min. Compounds were added to a final assay volume of 100 μl and incubated for 30 min at 30° C. Using the cAMP-Nano-TRF detection kit the assay (Roche Diagnostics) was stopped by the addition of 50 μl lysis reagent (Tris, NaCl, 1.5% Triton X100, 2.5% NP40, 10% NaN3) and 50 μl detection solutions (20 μM mAb Alexa700-cAMP 1:1, and 48 μM Ruthenium-2-AHA-cAMP) and shaken for 2 h at room temperature. The time-resolved energy transfer is measured by a TRF reader (Evotec Technologies GmbH), equipped with a ND:YAG laser as excitation source. The plate is measured twice with the excitation at 355 nm and at the emission with a delay of 100 ns and a gate of 100 ns, total exposure time 10 s at 730 (bandwidth 30 nm) or 645 nm (bandwidth 75 nm), respectively. The FRET signal is calculated as follows: FRET=T730-Alexa730-P(T645-B645) with P=Ru730-B730/Ru645-B645, where T730 is the test well measured at 730 nM, T645 is the test well measured at 645 nm, B730 and B645 are the buffer controls at 730 nm and 645 nm, respectively. cAMP content is determined from the function of a standard curve spanning from 10 μM to 0.13 nM cAMP.
(§2) EC50 values were determined using Activity Base analysis (ID Business Solution, Limited). The EC50 values for a wide range of cannabinoid agonists generated from this assay were in agreement with the values published in the scientific literature.

[2] = target: human CB1 receptors (Homo sapiens (Human), UniProt P21554); assay: functional cAMP assay, CHO cells expressing human CB1 receptors; assay type: cell-based
Description: as §1, §2

human CB1 receptors, sequence (P21554 whole entry): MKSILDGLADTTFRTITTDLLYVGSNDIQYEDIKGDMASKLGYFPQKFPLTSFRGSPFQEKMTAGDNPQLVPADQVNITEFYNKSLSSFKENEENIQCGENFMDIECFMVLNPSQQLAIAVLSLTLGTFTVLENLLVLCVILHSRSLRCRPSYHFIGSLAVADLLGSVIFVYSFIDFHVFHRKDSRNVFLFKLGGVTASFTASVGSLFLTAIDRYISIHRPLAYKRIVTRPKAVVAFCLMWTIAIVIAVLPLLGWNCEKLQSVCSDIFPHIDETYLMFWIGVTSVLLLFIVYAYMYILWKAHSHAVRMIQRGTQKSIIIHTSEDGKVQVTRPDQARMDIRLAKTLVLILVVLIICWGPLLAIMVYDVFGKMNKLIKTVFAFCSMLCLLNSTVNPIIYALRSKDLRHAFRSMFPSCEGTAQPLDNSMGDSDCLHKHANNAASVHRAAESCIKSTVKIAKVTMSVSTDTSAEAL
human CB2 receptors, sequence (P34972 whole entry): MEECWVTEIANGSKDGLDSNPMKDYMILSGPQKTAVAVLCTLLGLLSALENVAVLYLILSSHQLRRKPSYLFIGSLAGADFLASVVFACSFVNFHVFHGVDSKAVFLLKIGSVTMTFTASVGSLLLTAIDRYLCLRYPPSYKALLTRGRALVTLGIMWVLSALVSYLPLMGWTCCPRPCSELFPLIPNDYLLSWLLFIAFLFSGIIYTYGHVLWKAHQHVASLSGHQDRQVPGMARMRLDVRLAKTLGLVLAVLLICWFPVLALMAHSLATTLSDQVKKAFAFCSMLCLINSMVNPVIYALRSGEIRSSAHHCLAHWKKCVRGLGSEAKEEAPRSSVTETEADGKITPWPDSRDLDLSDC

Compound | EC50 [1] | EC50 [2]
NC(=O)[C@@H]1CC(F)(F)CN1C(=O)c1ccc(C2CC2)c(Cc2ccc(F)cc2)n1 [Example 76, (S)-1-[5-Cyclopropyl-6-(4-fluoro-benzyl)-pyridine-2-carbonyl]-4,4-difluoro-pyrrolidine-2-carboxylic acid amide] | 0.0002 µM | 0.167 µM
CC1(C)COCCN1C(=O)c1ccc(N2CC(F)(F)C2)c(OCC2CC2)n1 [Example 17, [6-Cyclopropylmethoxy-5-(3,3-difluoro-azetidin-1-yl)-pyridin-2-yl]-(3,3-dimethyl-morpholin-4-yl)-methanone] | 0.0052 µM | > 10 µM
CC1(C)C[C@@H]2C[C@@](C)(CN2C(=O)c2ccc(N3CC(F)(F)C3)c(OCC3CC3)n2)C1 [Example 45, [6-Cyclopropylmethoxy-5-(3,3-difluoro-azetidin-1-yl)-pyridin-2-yl]-((1S,5R)-1,3,3-trimethyl-6-aza-bicyclo[3.2.1]oct-6-yl)-methanone] | 0.0068 µM | > 10 µM
CN(CC1CC1)C(=O)c1ccc(N2CC(F)(F)C2)c(OCC2CC2)n1 [Example 105, 6-Cyclopropylmethoxy-5-(3,3-difluoro-azetidin-1-yl)-pyridine-2-carboxylic acid cyclopropylmethyl-methyl-amide] | 0.218 µM | > 10 µM
NC(=O)C1CSCN1C(=O)c1ccc(C2CC2)c(OCC2CC2)n1 (stereo not shown) [Example 96, 3-(5-Cyclopropyl-6-cyclopropylmethoxy-pyridine-2-carbonyl)-thiazolidine-4-carboxylic acid amide] | 0.103 µM | > 10 µM
NC(=O)[C@H]1CC(F)(F)CN1C(=O)c1ccc(C2CC2)c(OCC(F)(F)C(F)(F)F)n1 [Example 87, (R)-1-[5-Cyclopropyl-6-(2,2,3,3,3-pentafluoro-propoxy)-pyridine-2-carbonyl]-4,4-difluoro-pyrrolidine-2-carboxylic acid amide] | 0.768 µM | > 10 µM
CCOC(=O)C1C2CN(C(=O)c3ccc(N4CC(F)(F)C4)c(OCC4CC4)n3)CC21 (stereo not shown) [Example 107, 3-[6-Cyclopropylmethoxy-5-(3,3-difluoro-azetidin-1-yl)-pyridine-2-carbonyl]-3-aza-bicyclo[3.1.0]hexane-6-carboxylic acid ethyl ester] | 0.757 µM | > 10 µM
O=C(c1ccc(N2CC(F)(F)C2)c(OCC2CC2)n1)N1C[C@@H]2C[C@H]1CN2Cc1ccccc1 [Example 63, ((1S,4S)-5-Benzyl-2,5-diaza-bicyclo[2.2.1]hept-2-yl)-[6-cyclopropylmethoxy-5-(3,3-difluoro-azetidin-1-yl)-pyridin-2-yl]-methanone] | 0.198 µM | > 10 µM
NC(=O)[C@@H]1C[C@H](F)CN1C(=O)c1ccc(N2CC(F)(F)C2)c(OCC2CC2)n1 [Example 80, (2S,4S)-1-[6-Cyclopropylmethoxy-5-(3,3-difluoro-azetidin-1-yl)-pyridine-2-carbonyl]-4-fluoro-pyrrolidine-2-carboxylic acid amide] | 0.342 µM | > 10 µM
NC(=O)[C@@H]1CC(F)(F)CN1C(=O)c1ccc(C2CC2)c(OCC2CCCO2)n1 (stereo partly drawn) [Example 75, (S)-1-{5-Cyclopropyl-6-[(R,S)-1-(tetrahydro-furan-2-yl)methoxy]-pyridine-2-arbonyl}-4,4-difluoro-pyrrolidine-2-carboxylic acid amide] | 0.0162 µM | > 10 µM
NC(=O)C1CCCCN1C(=O)c1ccc(C2CC2)c(OCC2CC2)n1 (stereo not shown) [Example 88, 1-(5-Cyclopropyl-6-cyclopropylmethoxy-pyridine-2-carbonyl)-piperidine-2-carboxylic acid amide] | 0.18 µM | > 10 µM
Cc1nc([C@H](CC2CC2)N(C)C(=O)c2ccc(N3CC(F)(F)C3)c(OCC3CC3)n2)no1 [Example 32, 6-Cyclopropylmethoxy-5-(3,3-difluoro-azetidin-1-yl)-pyridine-2-carboxylic acid [(S)-2-cyclopropyl-1-(5-methyl-[1,2,4]oxadiazol-3-yl)-ethyl]-methyl-amide] | 0.256 µM | > 10 µM
NC(=O)[C@@H]1CSCN1C(=O)c1ccc(N2CC(F)(F)C2)c(OCC2CC2)n1 [Example 112, (−)-3-[6-Cyclopropylmethoxy-5-(3,3-difluoro-azetidin-1-yl)-pyridine-2-carbonyl]-thiazolidine-4-carboxylic acid amide] | 0.0198 µM | > 10 µM
NC(=O)[C@@H]1CS(=O)(=O)CN1C(=O)c1ccc(N2CC(F)(F)C2)c(OCC2CC2)n1 [Example 127, (−)-3-[6-(Cyclopropylmethoxy)-5-(3,3-difluoroazetidin-1-yl)pyridine-2-carbonyl]-1,1-dioxo-1,3-thiazolidine-4-carboxamide] | 0.0034 µM | > 10 µM
NC(=O)[C@@H]1N(C(=O)c2ccc(N3CC(F)(F)C3)c(OCC3CC3)n2)CCC12CC2 [Example 151, (−)-5-[6-(Cyclopropylmethoxy)-5-(3,3-difluoroazetidin-1-yl)pyridine-2-carbonyl]-5-azaspiro[2.4]heptane-4-carboxamide] | 0.818 µM | > 10 µM
CCN(C(=O)c1ccc(N2CC(F)(F)C2)c(OCC2CC2)n1)C(C)(C)C [Example 7, 6-Cyclopropylmethoxy-5-(3,3-difluoro-azetidin-1-yl)-pyridine-2-carboxylic acid tert-butyl-ethyl-amide] | 0.0006 µM | 0.292 µM
NC(=O)[C@@H]1CSCCN1C(=O)c1ccc(C2CC2)c(OCC2CC2)n1 [Example 93, (−)-4-(5-Cyclopropyl-6-cyclopropylmethoxy-pyridine-2-carbonyl)-thiomorpholine-3-carboxylic acid amide] | 0.327 µM | > 10 µM
O=C(c1ccc(N2CC(F)(F)C2)c(OCC2CC2)n1)N1C[C@@H]2C[C@H]1CS2 [Example 62, [6-Cyclopropylmethoxy-5-(3,3-difluoro-azetidin-1-yl)-pyridin-2-yl]-(1S,4S)-2-thia-5-aza-bicyclo[2.2.1]hept-5-yl-methanone] | 0.0091 µM | > 10 µM
O=C(c1ccc(N2CC(F)(F)C2)c(OCC2CC2)n1)N1CCCC12CC2 [Example 57, (4-Aza-spiro[2.4]hept-4-yl)-[6-cyclopropylmethoxy-5-(3,3-difluoro-azetidin-1-yl)-pyridin-2-yl]-methanone] | 0.0018 µM | > 10 µM
CN(C(=O)c1ccc(N2CC(F)(F)C2)c(OCC2CC2)n1)C(C)(C)COC(=O)c1ccc(N2CC(F)(F)C2)c(OCC2CC2)n1 [Example 12, 6-Cyclopropylmethoxy-5-(3,3-difluoro-azetidin-1-yl)-pyridine-2-carboxylic acid 2-{[6-cyclopropylmethoxy-5-(3,3-difluoro-azetidin-1-yl)-pyridine-2-carbonyl]-methyl-amino}-2-methyl-propyl ester] | 0.134 µM | > 10 µM
NC(=O)[C@@H]1CC(F)(F)CN1C(=O)c1ccc(C2CC2)c(OCC2CC2)n1 [Example 68, (S)-1-(5-Cyclopropyl-6-cyclopropylmethoxy-pyridine-2-carbonyl)-4,4-difluoro-pyrrolidine-2-carboxylic acid amide] | 0.0027 µM | > 10 µM
Cc1nnc(CN(C(=O)c2ccc(N3CC(F)(F)C3)c(OCC3CC3)n2)C2CC2)o1 [Example 81, 6-Cyclopropylmethoxy-5-(3,3-difluoro-azetidin-1-yl)-pyridine-2-carboxylic acid cyclopropyl-(5-methyl-[1,3,4]oxadiazol-2-ylmethyl)-amide] | 0.652 µM | > 10 µM
CC1(O)CCN(C(=O)c2ccc(N3CC(F)(F)C3)c(OCC3CC3)n2)CC1 [Example 61, [6-Cyclopropylmethoxy-5-(3,3-difluoro-azetidin-1-yl)-pyridin-2-yl]-(4-hydroxy-4-methyl-piperidin-1-yl)-methanone] | 0.391 µM | > 10 µM
NC(=O)C1CS(=O)(=O)CN1C(=O)c1ccc(C2(F)CCC2)c(OCC2CC2)n1 (stereo not shown) [Example 133, 3-[6-(Cyclopropylmethoxy)-5-(1-fluorocyclobutyl)pyridine-2-carbonyl]-1,1-dioxo-1,3-thiazolidine-4-carboxamide] | 0.0102 µM | > 10 µM
CC1(C)COCN1C(=O)c1ccc(OCC2CC2)c(Cl)n1 [Example 49, (6-Chloro-5-cyclopropylmethoxy-pyridin-2-yl)-(4,4-dimethyl-oxazolidin-3-yl)-methanone] | 0.139 µM | > 10 µM
CC(C)(C)N(CCC(N)=O)C(=O)c1ccc(N2CC(F)(F)C2)c(OCC2CC2)n1 [Example 72, 6-Cyclopropylmethoxy-5-(3,3-difluoro-azetidin-1-yl)-pyridine-2-carboxylic acid tert-butyl-(2-carbamoyl-ethyl)-amide] | 0.664 µM | > 10 µM
